{"source": "patent US20060122101A1", "about": "“Drug for preventing, regulating or treating adhesion” (priority 2003, published 2006)", "key": {"[1]": {"molecular_target": "T1, chymase (Homo sapiens, UniProt P23946)", "T1 construct": "the chymase activity in the blood vessel tissue of the living body; from tissue; host or cells: blood vessel tissue of the living body", "T1 sequence (P23946 22-247)": "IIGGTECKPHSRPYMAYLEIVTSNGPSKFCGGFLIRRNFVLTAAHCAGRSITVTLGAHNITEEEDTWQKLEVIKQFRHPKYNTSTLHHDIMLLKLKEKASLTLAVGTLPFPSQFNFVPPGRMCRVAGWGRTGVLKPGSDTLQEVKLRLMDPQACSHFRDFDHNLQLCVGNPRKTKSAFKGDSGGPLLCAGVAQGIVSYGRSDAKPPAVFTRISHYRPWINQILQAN", "assay": "Chymase activity in blood vessel tissue of the living body after use during operation", "assay_type": "in vivo", "conditions": "10 μM during the operation; for 4 weeks", "protocol": "The medicament of the present invention allows at least one protease inhibitor to be administered in a substantially sufficient amount to permit epithelialization in the site of adhesion formation. […] The effective administration amount of chymase inhibitor (Suc-Val-Pro-L-Phe^P(OPh)2) can be selected in the range of 0.0001 to 100 mg per 1 kg of adult body weight, per one day. For example, it can be administered intravenously by an amount selected in the range from 0.0001 to 100 mg, preferably from 0.01 to 1 mg, and orally by an amount selected in the range from 0.1 to 100 mg, preferably from 0.1 to 10 mg. Furthermore, it can be intravenously applied by an amount in the range from 0.0001 to 1000 mg, preferably from 0.1 to 100 mg."}, "[2]": {"conditions": "cited from earlier work"}, "[3]": {"molecular_target": "human leukocyte elastase (Homo sapiens, UniProt P08246)", "sequence (P08246 30-267)": "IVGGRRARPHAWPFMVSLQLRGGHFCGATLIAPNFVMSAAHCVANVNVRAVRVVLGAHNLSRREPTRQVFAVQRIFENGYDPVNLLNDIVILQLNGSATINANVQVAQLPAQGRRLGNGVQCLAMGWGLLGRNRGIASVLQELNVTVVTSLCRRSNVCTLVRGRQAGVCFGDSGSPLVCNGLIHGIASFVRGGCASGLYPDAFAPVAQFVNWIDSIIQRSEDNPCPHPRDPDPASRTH", "conditions": "cited from earlier work"}, "[4]": {"tested_on": "Cardiac muscle adhesion models", "assay": "Prevention of adhesion by oral administration in hamster cardiac muscle adhesion model", "assay_type": "in vivo, Syrian hamsters", "conditions": "10 mg/kg orally once a day", "protocol": "Syrian hamsters (SLC Co., Ltd.), 6 weeks of age (weighing 85-90 g), were subject to abdominal middle incision to scrape their hearts. Cardiac muscle adhesion models were prepared. Suc-Val-Pro-Phe^P(OPh)2 (10 mg/kg) (eight cases) or placebo (eight cases) was forcibly orally administered using a canal once a day from the 3rd day before the model preparation to the 14th day after the model preparation. The adhesion levels at the 14th day after the model preparation were compared to study. Adhesion scores are as follows. Student-t test was used to test a significant difference in adhesion core.\nAdhesion level 0: A heart is easily taken out, and the heart exists independently from the circumference, as is similar to a normal heart.\nAdhesion level 1: A heart is observed to adhere to the circumferential tissue at one site by a thin film, but the adhesion site can be simply freed to release the heart.\nAdhesion level 2: A heart is observed to adhere to the circumferential tissue at a few sites, but the adhesion sites can be freed by a traction force to release the heart.\nAdhesion level 3: A heart is firmly adhered, but is distinguishable from, to the circumferential tissue at several sites, and it is hard to release the heart without a strong traction force.\nAdhesion level 4: Excessive cell growth and fibrosis occur around a heart, and the heart is observed to adhere to the circumferential tissue. The heart is so firmly adhered to the circumferential tissue that the heart is difficult to release even by a peeling traction force."}, "[5]": {"tested_on": "chymotrypsin and chymotrypsin-like enzymes", "conditions": "cited from earlier work"}, "[6]": {"conditions": "3rd day before to 14th day after model preparation, eight cases"}}}
{"molecule": "CC(C)C(NC(=O)CCC(=O)O)C(=O)N1CCCC1C(=O)NC(Cc1ccccc1)P(=O)(Oc1ccccc1)Oc1ccccc1", "note": "[Suc-Val-Pro-L-Phe^P(OPh)2]", "values": [{"measurement": "suppression of chymase activity in the blood vessel tissue", "setting": "[1]", "value": "suppress significantly"}, {"measurement": "half-life in human blood plasma", "setting": "[2]", "value": "about 20 hours"}]}
{"molecule": "Boc-Val-Pro-Val^P(OPh)2", "values": [{"measurement": "inhibitor potency with human leukocyte elastase", "setting": "[3]", "value": "relatively potent inhibitors"}]}
{"molecule": "Meo-Suc-Ala-Ala-Pro-Val^P(OPh)2", "values": [{"measurement": "inhibitor potency with human leukocyte elastase", "setting": "[3]", "value": "relatively potent inhibitors"}]}
{"molecule": "Suc-Val-Pro-Phe^P(OPh)2", "values": [{"measurement": "cases ranked as adhesion level 0", "setting": "[4]; [6]", "value": 75, "unit": "%"}, {"measurement": "cases ranked as adhesion level 2", "setting": "[4]; [6]", "value": 12.5, "unit": "%"}, {"measurement": "cases ranked as adhesion level 4", "setting": "[4]; [6]", "value": 12.5, "unit": "%"}, {"measurement": "adhesion level versus placebo group", "setting": "[4]; 14th day, Student-t test", "value": "fell down significantly in adhesion level"}, {"measurement": "half-life in human blood plasma", "setting": "[2]", "value": "about 20 hours"}, {"measurement": "inhibitor potency for chymotrypsin and chymotrypsin-like enzymes", "setting": "[5]", "value": "relatively potent inhibitor"}]}
